# Experiments:
# Assay in all cases: Postemergence foliar-applied greenhouse weed control, direct-seeded rice system
# [1] = tested on: CYPIR; assay type: in vivo, Cyperus iria L.
# Description: (§1) Seeds or nutlets of the desired test plant species were planted in a soil matrix prepared by mixing a loam or sandy loam soil (e.g., 28.6 percent silt, 18.8 percent clay, and 52.6 percent sand, with a pH of about 5.8 and an organic matter content of about 1.8 percent) and calcareous grit in an 80 to 20 ratio. The soil matrix was contained in plastic pots with a volume of 1 quart and a surface area of 83.6 square centimeters (cm^2). When required to ensure good germination and healthy plants, a fungicide treatment and/or other chemical or physical treatment was applied. The plants were grown for 8-22 days in a greenhouse with an approximate 14 h photoperiod which was maintained at about 29° C. during the day and 26° C. during the night. Nutrients (Peters Excel® 15-5-15 5-Ca 2-Mg and iron chelate) were applied in the irrigation solution as needed and water was added on a regular basis. Supplemental lighting was provided with overhead metal halide 1000-Watt lamps as necessary. The plants were employed for testing when they reached the first through fourth true leaf stage. […]
# (§2) Treatment requirements were calculated based upon the rates being tested, the concentration of active ingredient or acid equivalent in the formulation, and a 12 mL application volume at a rate of 187 L/ha.
# (§3) For treatments comprised of formulated compounds, measured amounts of compounds were placed individually in 25 mL glass vials and diluted in a volume of 1.25% (v/v) Agri-Dex® crop oil concentrated to obtain 12× stock solutions. […]
# (§4) For treatments comprised of formulated and technical compounds, weighed amounts of the technical materials were placed individually in 25 mL glass vials and dissolved in a volume of 97:3 v/v acetone/DMSO to obtain 12× stock solutions, and measured amounts of the formulated compounds were placed individually in 25 mL glass vials and diluted in a volume of 1.5% (v/v) crop oil concentrate or water to obtain 12× stock solutions. […]
# [2] = tested on: SCPJU; assay type: in vivo, Schoenoplectus juncoides (Roxb.) Palla
# Description: as §1, §2, §3, §4
# [3] = tested on: ECHCG; assay type: in vivo, Echinochloa crusgalli (L.) Beauv.
# Description: (§5) Seeds or nutlets of the desired test plant species were planted in a soil matrix prepared by mixing a loam or sandy loam soil (e.g., 28.6 percent silt, 18.8 percent clay, and 52.6 percent sand, with a pH of about 5.8 and an organic matter content of about 1.8 percent) and calcareous grit in an 80 to 20 ratio. The soil matrix was contained in plastic pots with a volume of 1 quart and a surface area of 83.6 square centimeters (cm^2). When required to ensure good germination and healthy plants, a fungicide treatment and/or other chemical or physical treatment was applied. The plants were grown for 8-22 days in a greenhouse with an approximate 14 h photoperiod which was maintained at about 29° C. during the day and 26° C. during the night. Nutrients (Peters Excel® 15-5-15 5-Ca 2-Mg and iron chelate) were applied in the irrigation solution as needed and water was added on a regular basis. Supplemental lighting was provided with overhead metal halide 1000-Watt lamps as necessary. The plants were employed for testing when they reached the first through fourth true leaf stage.
# (§6) Treatments consisted of the acid or esters of 4-amino-3-chloro-5-fluoro-6-(4-chloro-2-fluoro-3-methoxy-phenyl)pyridine-2-carboxylic acid (Compound A), each formulated as an SC (suspension concentrate), and various herbicidal components alone and in combination. Forms of compound A were applied on an acid equivalent basis.
# (§7) Other herbicidal components were applied on an active ingredient basis and included diamuron formulated as an EC (emulsifiable concentrate) and oxaziclomefone (technical grade material).
# as §2
# (§8) For treatments comprised of formulated compounds, measured amounts of compounds were placed individually in 25 mL glass vials and diluted in a volume of 1.25% (v/v) Agri-Dex® crop oil concentrated to obtain 12× stock solutions. […] Application solutions were prepared by adding an appropriate amount of each stock solution (e.g., 1 mL) and diluted to the appropriate final concentrations with the addition of 10 mL of an aqueous mixture of 1.25% (v/v) crop oil concentrate so that the final spray solutions contained 1.25+/−0.05% (v/v) crop oil concentrate.
# (§9) For treatments comprised of technical compounds, weighed amounts can be placed individually in 25 mL glass vials and dissolved in a volume of 97:3 v/v acetone/DMSO to obtain 12× stock solutions. […] Application solutions can be prepared by adding an appropriate amount of each stock solution (e.g., 1 mL) and diluted to the appropriate final concentrations with the addition of 10 mL of an aqueous mixture of 1.5% (v/v) crop oil concentrate so that the final spray solutions contain 1.25% (v/v) crop oil concentrate. When technical materials are used, the concentrated stock solutions can be added to the spray solutions so that the final acetone and DMSO concentrations of the application solutions are 16.2% and 0.5%, respectively.
# (§10) For treatments comprised of formulated and technical compounds, weighed amounts of the technical materials were placed individually in 25 mL glass vials and dissolved in a volume of 97:3 v/v acetone/DMSO to obtain 12× stock solutions, and measured amounts of the formulated compounds were placed individually in 25 mL glass vials and diluted in a volume of 1.5% (v/v) crop oil concentrate or water to obtain 12× stock solutions. […] Application solutions were prepared by adding an appropriate amount of each stock solution (e.g., 1 mL) and diluted to the appropriate final concentrations with the addition of an appropriate amount of an aqueous mixture of 1.5% (v/v) crop oil concentrate so that the final spray solutions contained 1.25% (v/v) crop oil concentrate. […]
# [4] = tested on: LEFCH; assay type: in vivo, Leptochloa chinensis (L.) Nees
# Description: as §5, §6, §7, §2, §8, §9, §10
# [5] = Compound A Benzyl Ester 4.38 gae/ha alone
# [6] = Compound A Benzyl Ester 8.75 gae/ha alone
smiles,measurement,setting,value
COc1c(Cl)ccc(-c2nc(C(=O)OCc3ccccc3)c(Cl)c(N)c2F)c1F [Compound A Benzyl Ester],Visual Weed Control (%) - 22 DAA CYPIR Obs,[1]; [5],25%
same,Visual Weed Control (%) - 22 DAA CYPIR Obs,[1]; [6],50%
same,Visual Weed Control (%) - 22 DAA SCPJU Obs,[2]; [5],75%
same,Visual Weed Control (%) - 22 DAA SCPJU Obs,[2]; [6],80%
same,Visual Weed Control (%) - 20 DAA ECHCG Obs,[3]; [5],40%
same,Visual Weed Control (%) - 20 DAA ECHCG Obs,[3]; [6],90%
same,Visual Weed Control (%) - 20 DAA LEFCH Obs,[4]; [5],10%
same,Visual Weed Control (%) - 20 DAA LEFCH Obs,[4]; [6],20%
same,Visual Weed Control (%) - 20 DAA LEFCH Obs,[4]; Compound A Benzyl Ester 17.5 gae/ha alone,50%

# From patent US8889591B2, “Herbicidal compositions comprising 4-amino-3-chloro-5-fluoro-6-(4-chloro-2-fluoro-3-methoxyphenyl)pyridine-2-carboxylic acid or a derivative thereof and bromobutide, daimuron, oxaziclomefone or pyributicarb” (Dow Agrosciences LLC, priority 2012, dated 2014)
